Source: patent US12599136B2, “Substituted isophthalic acid diamides and their use as herbicides” (Bayer Aktiengesellschaft, priority 2020, dated 2026)

Assays:
Format in all cases: in vivo
[1] = system: Abutilon theophrasti; assay: Pre-emergence herbicidal action against ABUTH; settings: visual score after 3 weeks vs untreated controls
How it was run: (§1)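 Greenhouse pots of sandy loam held seeds covered with soil, onto which the compound was applied before emergence. An aqueous suspension or emulsion of WP or EC was used at 600 to 800 l/ha with 0.2% wetting agent. Percent damage was judged visually at 3 weeks.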

[2] = system: Alopecurus myosuroides; assay: Pre-emergence herbicidal action against ALOMY; settings: visual score after 3 weeks vs untreated controls
How it was run: as §1

[3] = system: Amaranthus retroflexus; assay: Pre-emergence herbicidal action against AMARE; settings: visual score after 3 weeks vs untreated controls
How it was run: as §1

[4] = system: Echinochloa crus-galli; assay: Pre-emergence herbicidal action against ECHCG; settings: 80 g/ha; visual score after 3 weeks vs untreated controls
How it was run: as §1

[5] = system: Matricaria inodora; assay: Pre-emergence herbicidal action against MATIN; settings: visual score after 3 weeks vs untreated controls
How it was run: as §1

[6] = system: Pharbitis purpurea; assay: Pre-emergence herbicidal action against PHBPU; settings: 80 g/ha; visual score after 3 weeks vs untreated controls
Source text: Seeds of monocotyledonous and dicotyledonous weed plants and crop plants are laid out in sandy loam soil in wood-fiber pots and covered with soil. The compounds of the invention, formulated in the form of wettable powders (WP) or as emulsion concentrates (EC), are then applied to the surface of the covering soil in the form of an aqueous suspension or emulsion at a water application rate equivalent to 600 to 800 l/ha, with addition of 0.2% wetting agent. After the treatment, the pots are placed in a greenhouse and kept under good growth conditions for the trial plants. The damage to the test plants is scored visually after a test period of 3 weeks by comparison with untreated controls (herbicidal activity in percent (%): 100% activity=the plants have died, 0% activity=like control plants). […] The tables below illustrate, in an illustrative manner, the post-emergence herbicidal action of the compounds of the invention, the herbicidal activity being stated in percent.

[7] = system: Digitaria sanguinalis; assay: Pre-emergence herbicidal action against DIGSA
How it was run: as §1

[8] = system: Polygonum convolvulus; assay: Pre-emergence herbicidal action against POLCO; settings: 80 g/ha
How it was run: as §1

[9] = system: Setaria viridis; assay: Pre-emergence herbicidal action against SETVI
How it was run: as §1

[10] = system: Viola tricolor; assay: Pre-emergence herbicidal action against VIOTR
How it was run: as §1

[11] = system: Abutilon theophrasti; assay: Post-emergence herbicidal action against ABUTH
How it was run: (§2)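 A WP or EC formulation diluted in water with 0.2% wetting agent was sprayed at 600 to 800 l/ha onto one-leaf-stage plants grown in sandy loam. About 3 weeks later, action was rated visually in percent, 100% being dead plants.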

[12] = system: Alopecurus myosuroides; assay: Post-emergence herbicidal action against ALOMY
How it was run: as §2

[13] = system: Amaranthus retroflexus; assay: Post-emergence herbicidal action against AMARE; settings: visual assessment about 3 weeks after treatment
How it was run: as §2

[14] = system: Echinochloa crus-galli; assay: Post-emergence herbicidal action against ECHCG; settings: 20 g/ha, visual assessment about 3 weeks after treatment
How it was run: as §2

[15] = system: Matricaria inodora; assay: Post-emergence herbicidal action against MATIN; settings: 20 g/ha, visual assessment about 3 weeks after treatment
How it was run: as §2

[16] = system: Pharbitis purpurea; assay: Post-emergence herbicidal action against PHBPU; settings: 20 g/ha, visual assessment about 3 weeks after treatment
How it was run: as §2

[17] = system: Setaria viridis; assay: Post-emergence herbicidal action against SETVI; settings: visual assessment about 3 weeks after treatment
How it was run: as §2

[18] = system: Veronica persica; assay: Post-emergence herbicidal action against VERPE; settings: 20 g/ha, visual assessment about 3 weeks after treatment
How it was run: as §2

[19] = system: Viola tricolor; assay: Post-emergence herbicidal action against VIOTR
How it was run: as §2

[20] = system: Avena fatua; assay: Pre-emergence herbicidal action against AVEFA; settings: 80 g/ha; visual score after 3 weeks vs untreated controls
How it was run: as §1

[21] = system: Veronica persica; assay: Pre-emergence herbicidal action against VERPE; settings: 80 g/ha
How it was run: as §1

## CCN(C(=O)c1c(C(F)(F)F)ccc(C(=O)Nc2nnnn2C)c1Cl)C1CC1 [Example 1-136]
[1]; 20 g/ha
  Pre-emergence action against ABUTH: 90%
[1]; 80 g/ha
  Pre-emergence action against ABUTH: 100%
[2]; 80 g/ha
  Pre-emergence action against ALOMY: 100%
[3]; 20 g/ha
  Pre-emergence action against AMARE: 90%
[3]; 80 g/ha
  Pre-emergence action against AMARE: 100%
[4]
  Pre-emergence action against ECHCG: 90%
[5]; 20 g/ha
  Pre-emergence action against MATIN: 90%
[5]; 80 g/ha
  Pre-emergence action against MATIN: 100%
[6]
  Pre-emergence action against PHBPU: 90%
[7]; 20 g/ha
  Pre-emergence action against DIGSA: 90%
[7]; 80 g/ha
  Pre-emergence action against DIGSA: 100%
[8]
  Pre-emergence action against POLCO: 80%
[9]; 20 g/ha
  Pre-emergence action against SETVI: 90%
[9]; 80 g/ha
  Pre-emergence action against SETVI: 100%
[10]; 20 g/ha
  Pre-emergence action against VIOTR: 100%
[10]; 80 g/ha
  Pre-emergence action against VIOTR: 100%
[11]; 5 g/ha
  Post-emergence action against ABUTH: 90%
[11]; 20 g/ha
  Post-emergence action against ABUTH: 100%
[12]; 5 g/ha
  Post-emergence action against ALOMY: 80%
[12]; 20 g/ha
  Post-emergence action against ALOMY: 90%
[13]; 5 g/ha
  Post-emergence action against AMARE in %: 100%
[13]; 20 g/ha
  Post-emergence action against AMARE in %: 100%
[14]
  Post-emergence action against ECHCG in %: 90%
[15]
  Post-emergence action against MATIN in %: 90%
[16]
  Post-emergence action against PHBPU in %: 80%
[17]; 20 g/ha
  Post-emergence action against SETVI in %: 100%
[18]
  Post-emergence action against VERPE in %: 80%
[19]; 5 g/ha
  Post-emergence action against VIOTR in %: 100%
[19]; 20 g/ha
  Post-emergence action against VIOTR in %: 100%

## CCN(CC)C(=O)c1c(Br)ccc(C(=O)Nc2nnnn2CC)c1Cl [Example 2-200]
[1]; 20 g/ha
  Pre-emergence action against ABUTH: 100%
[1]; 80 g/ha
  Pre-emergence action against ABUTH: 100%
[2]; 20 g/ha
  Pre-emergence action against ALOMY: 90%
[2]; 80 g/ha
  Pre-emergence action against ALOMY: 100%
[3]; 20 g/ha
  Pre-emergence action against AMARE: 100%
[3]; 80 g/ha
  Pre-emergence action against AMARE: 100%
[20]
  Pre-emergence action against AVEFA: 90%
[4]
  Pre-emergence action against ECHCG: 90%
[5]; 20 g/ha
  Pre-emergence action against MATIN: 90%
[5]; 80 g/ha
  Pre-emergence action against MATIN: 100%
[6]
  Pre-emergence action against PHBPU: 90%
[9]; 80 g/ha
  Pre-emergence action against SETVI: 100%
[21]
  Pre-emergence action against VERPE: 90%
[10]; 20 g/ha
  Pre-emergence action against VIOTR: 80%
[10]; 80 g/ha
  Pre-emergence action against VIOTR: 100%
[11]; 5 g/ha
  Post-emergence action against ABUTH: 80%
[11]; 20 g/ha
  Post-emergence action against ABUTH: 100;; %
[12]; 20 g/ha
  Post-emergence action against ALOMY: 100%
[13]; 5 g/ha
  Post-emergence action against AMARE in %: 100%
[13]; 20 g/ha
  Post-emergence action against AMARE in %: 100%
[15]
  Post-emergence action against MATIN in %: 80;; %
[16]
  Post-emergence action against PHBPU in %: 80%
[17]; 5 g/ha
  Post-emergence action against SETVI in %: 100%
[17]; 20 g/ha
  Post-emergence action against SETVI in %: 100%
[18]
  Post-emergence action against VERPE in %: 90%
[19]; 20 g/ha
  Post-emergence action against VIOTR in %: 100%
